Assay: Chemical stability of the compound assessed as half life at 1.25 mM in presence of glutathione by NMR analysis
Format: physicochemical
Conditions: gsh

| half-life at 1250 µM | Compound |
| --- | --- |
| 150 h | CN1CCN(CCCOc2ccc(-c3cccc(C#N)n3)cc2C(F)(F)F)CC1 |
| 120 h | CN1CCN(CCCOc2ccc(-c3ccnc(C#N)c3)cc2C(F)(F)F)CC1 |

Reference: ChEMBL document CHEMBL1208705, “4-(3-Trifluoromethylphenyl)-pyrimidine-2-carbonitrile as cathepsin S inhibitors: N3, not N1 is critically important” (Bioorg Med Chem Lett, 2010)
